According to patent US11266768B2, “Stretch release drug delivery materials” (TRUSTEES OF BOSTON UNIVERSITY, priority 2013, dated 2022):
Entries after “also recorded” stand apart in the source; their conditions may differ.

Tests used:
[1] = Strain-modulated release of SN-38 from mechanoresponsive drug delivery device (fluorimetry); format: physicochemical; settings: for release of SN-38 from device: PBS or RPMI with 10% v/v fetal bovine serum
Protocol: SN-38 from release media was quantified by mixing one (1) part release medium (containing drug) in three (3) parts 20 mM borate buffer (pH=9), which converts SN-38 to the carboxylate form. Fluorescence was detected by fluorimetry at an excitation of 380 nm and emission of 550 nm, as previously described (Yohe, J Controlled Release 2012, 162). (FIG. 42)
A drug delivery device with incorporated SN-38 was fabricated in accordance with Example 2, above. The ends of the material were placed between two pieces of foam tape and further secured by applying glue to the ends in contact with the foam tape. The ends were then placed between the grips of a tensile tester machine (Instron 5848 Microtester) and the sample length between the grips was recorded. A water bath was placed under the sample arms, and the drug delivery device was submerged beneath 300 mL of phosphate-buffered saline (PBS) or cell media, RPMI with 10% v/v fetal bovine serum. A magnetic stir bar was also added to the bath to ensure thorough mixing during the study. The Instron software was then programmed to extend the sample arms at a constant rate of 2 mm/s until a travel distance equivalent to thirty percent of the initial sample length was reached (corresponding to 30% strain), or equivalent to the entire initial sample length was reached (corresponding to 100% strain). Once the device was stretched, aliquots of release medium were sampled at predetermined time points. The percentage of SN-38 released into the surrounding aqueous environment was calculated using fluorimetry, as described in Example 31. Devices were also placed on the tensile tester, but in this instance they were not stretched (0% strain), to serve as control experiments. Release of the chemotherapy agent from devices subjected to 100% strain and more moderate from devices subjected to 30% strain. […] (FIG. 43)

OE33, oesophageal cancer = test: OE33 cell viability with SN-38 release aliquots (MTS Assay); format: cell-based; settings: release aliquots in RPMI with 10% fetal bovine serum incubated 96 hours
Text: By altering the amount of strain, the rate of SN-38 release can be controlled in order to provide a range of concentrations at fixed time points. […] The concentration of SN-38 can be either lower or higher than the IC50 value such that a similar curve can be created using force and/or strain, rather than, or in addition to, concentration. […] Because SN-38 is a toxic chemotherapeutic drug, the amount of SN-38 released correlates with cell viability. […] (FIG. 44)

[2] = Tension-triggered release of cisplatin from mechanoresponsive drug delivery device (atomic absorption); format: physicochemical; settings: for release of cisplatin from device: PBS
Text: The amount of cisplatin released from the drug delivery system into the surrounding aqueous environment was quantified through flameless atomic absorption spectroscopy (also known as graphite furnace atomic absorption or electrothermal absorption (Varian AA240Z Atomic Absorption)). The platinum atom has a strong absorbance band at 265.9 nm, and was used for detecting the presence of platinum (the major component of the anticancer agent cisplatin) in the release medium. A standard curve was first created, and aliquots (sampled at different timepoints) from the release medium with unknown cisplatin concentrations were determined from this standard curve. The concentration values were then converted to amount (mass) of cisplatin released by multiplying the concentration by the total volume of solution into which the agent released. The amount of cisplatin actually released was then divided by the amount of cisplatin initially loaded into the device, to get a percentage of cisplatin released as a function of time.
A drug delivery device with incorporated cisplatin was fabricated in accordance with Example 1 above. The ends of the material were placed between two pieces of foam tape and further secured by applying glue to the ends in contact with the foam tape. The ends were then placed between the grips of a tensile tester machine (Instron 5848 Microtester) and the sample length between the grips was recorded. A water bath was placed under the sample arms, and the drug delivery device was submerged beneath 300 mL of phosphate-buffered saline (PBS). A magnetic stir bar was also added to the bath to ensure thorough mixing during the study. The Instron software was then programmed to extend the sample arms at a constant rate of 2 mm/s until a travel distance equivalent to the initial sample length was reached (corresponding to 100% strain). […] The percentage of cisplatin released into the surrounding aqueous environment was calculated using flameless atomic absorption spectroscopy, as described in Example 16. […]

OE33 cells = test: OE33 cell viability with cisplatin release aliquots (MTS Assay); format: cell-based; settings: release aliquots incubated 72 hours with OE33 cells
Protocol: Aliquots from release (FIG. 39) were incubated for 72 hours with OE33 cells, an oesophageal cell line. Cell viability from incubation of release aliquots over two hours were determined by MTS Assay, left. Cell viability at the 30-minute release at various strain magnitude are shown, right (p<0.05 for 30%, 100% when compared to 0%).
Cisplatin is used in the treatment of esophageal cancer. […] They used an esophageal cell line, OE33 (Sigma), to show the efficacy of cisplatin released from the tension-modulated drug delivery device, and that a dose-response curve can be generated using force and/or strain as the means to alter the dose. […] By altering the amount of force, the rate of cisplatin release can be controlled in order to provide a range of concentrations at fixed time points. The concentration of cisplatin can be either lower or higher than the IC50 value such that a similar curve may be created using force and/or strain on the x-axis, rather than, or in addition to, concentration.
Cisplatin can be loaded into these systems as described in Example 14. Cisplatin can be used to achieve dose-dependent tumor cell death, and also strain-dependent cell death. A strain-dependent release of cisplatin, a small hydrophilic drug molecule, can be seen in FIG. 39. Because cisplatin is a cytotoxic chemotherapeutic drug, the amount of cisplatin released correlates with cell viability (FIG. 40).

OE33 = settings: 72 hours of incubation; read-out: IC50 of cisplatin with OE33; cited from earlier work
[3] = Tension-triggered release of FITC-BSA from mechanoresponsive drug delivery device (fluorescence); format: physicochemical; settings: PBS with 10% serum
Text: The amount of fluorescein isothiocyanate-labeled bovine serum albumin (FITC-BSA) released from the drug delivery system into the surrounding aqueous environment was quantified through fluorescence spectrophotometry. The fluorescein isothiocyanate is a fluorophore that is maximally excited around 495 nm and maximally emits at around 520 nm. The fluorescence intensity emitted at 520 nm was used to construct a standard curve of fluorescence versus FITC-BSA concentration. Unknown FITC-BSA concentrations in the release medium were calculated from this standard curve. The concentration values were then converted to amount (mass) of FITC-BSA released by multiplying by the concentration values by the total volume of solution into which the protein released. The amount of FITC-BSA actually released was then divided by the amount of FITC-BSA initially loaded into the device, to get a percentage of protein released as a function of time. (FIGS. 19-21)
A drug delivery device with incorporated fluorescein isothiocyanate-labeled bovine serum albumin (FITC-BSA) was fabricated in accordance with Example 1 above. The ends of the material were placed between two pieces of foam tape and further secured by applying glue to the ends in contact with the foam tape. The ends were then placed between the grips of a tensile tester machine (Instron 5848 Microtester) and the sample length between the grips was recorded. A water bath was placed under the sample arms, and the drug delivery device was submerged beneath 300 mL of phosphate-buffered saline (PBS) with 10% serum (fetal bovine serum). A magnetic stir bar was also added to the bath to ensure thorough mixing during the study. The Instron software was then programmed to extend the sample arms at a constant rate of 2 mm/s until a travel distance equivalent to the initial sample length was reached (corresponding to 100% strain). Once the device was stretched, aliquots of release medium were sampled at predetermined time points. The percentage of protein released into the surrounding aqueous environment was calculated using fluorescence spectrophotometry, as described in Example 13 above. Devices were also placed on the tensile tester, but in this instance they were not stretched (0% strain), to serve as control experiments. Release of the fluorescent protein from devices subjected to strain was rapid, and was achieved only under the application of strain. […] (FIG. 24)
A drug delivery device with incorporated fluorescein isothiocyanate-labeled bovine serum albumin (FITC-BSA) was fabricated in accordance with Example 1 above. The coating was electrosprayed using a tip-to-collector distance of 15 cm. The ends of the material were placed between two pieces of foam tape and further secured by applying glue to the ends in contact with the foam tape. The ends were then placed between the grips of a tensile tester machine (Instron 5848 Microtester) and the sample length between the grips was recorded. A water bath was placed under the sample arms, and the drug delivery device was submerged beneath 300 mL of phosphate-buffered saline (PBS) with 10% serum (fetal bovine serum). A magnetic stir bar was also added to the bath to ensure thorough mixing during the study. The Instron software was then programmed to extend the sample arms at a constant rate of 2 mm/s until a travel distance equivalent to half of the initial sample length was reached (corresponding to 50% strain), or equivalent to the entire initial sample length was reached (corresponding to 100% strain). Once the device was stretched, aliquots of release medium were sampled at predetermined time points. The percentage of protein released into the surrounding aqueous environment was calculated using fluorescence spectrophotometry, as described in Example 13 above. Devices were also placed on the tensile tester, but in this instance they were not stretched (0% strain) to serve as a control experiment. […]

[4] = tested on: type I collagen in fibroblasts; settings: cited from earlier work

CCc1c2c(nc3ccc(O)cc13)-c1cc3c(c(=O)n1C2)COC(=O)[C@]3(O)CC [SN-38, 7-ethyl-10-hydroxycamptothecin]
dependence of SN-38 release on strain [1]: strain-dependent
release of SN-38 from device ([1]; 0% strain): did not release appreciable amounts of drug
release of SN-38 from device ([1]; 30% strain): more moderate
cell viability with released SN-38 (OE33, oesophageal cancer): deliver an efficacious amount of SN-38 to change the cell viability; also recorded: significant decreases in viability with increasing strain

N.N.[Cl][Pt][Cl] [cisplatin, Cis-diamminedichloroplatinum(II)]
release of cisplatin from device ([2]; 100% strain): rapid release
dependence of cisplatin release on strain ([2]; cell media solution (RPMI) with fetal bovine serum (10% v/v)): strain-dependent; also recorded: tension-dependent
release of cisplatin from device ([2]; no applied tension (0% strain)): did not release appreciable amounts of drug; also recorded: minimal release
cell viability with released cisplatin (OE33 cells): deliver an efficacious amount of cisplatin to change the cell viability
IC50 (OE33): 2170 nM

FITC-BSA: Fluorescein isothiocyanate-labeled bovine serum albumin, model protein
release of FITC-BSA from device ([3]; 0% strain, dry coating, tip-to-collector distance 15 cm): did not release appreciable amounts of protein; also recorded: minimal release
release of FITC-BSA from device ([3]; 50% strain, dry coating, tip-to-collector distance 15 cm): more moderate; also recorded: modest release profile
release of FITC-BSA from device ([3]; 100% strain): rapid release
release of FITC-BSA from device ([3]; 100% strain, listed as protein): rapid drug release
release of FITC-BSA from device ([3]; 100% strain, dry coating, tip-to-collector distance 15 cm): most rapid; also recorded: rapid release
release of FITC-BSA from device ([3]; no applied tension (0% strain)): did not release appreciable amounts of protein; also recorded: minimal release
release of FITC-BSA from device ([3]; no applied tension (0% strain), listed as protein): did not release appreciable amounts of drug

TNF-α
effect on synthesis of type I collagen [4]: inhibit synthesis of type I collagen
